Calls of active or inactive are those of the source.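 Rule for the calls: active = clearly stronger inhibition of the target decarboxylase than of the coupling enzymes tested in parallel without it; inactive = the rest.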
Molecular target: diphosphomevalonate decarboxylase (Streptococcus pneumoniae D39)
Test: S. pneumoniae DPM-DC inhibitor potency, dose response, biochemical, PK/LDH-coupled NADH fluorescence, hexokinase coupling counter-screen (AID 550)
Conditions: purified DPM-DC

In the case of `CCCn1c(=O)c2ccccc2n2c(SCC(=O)/C(C#N)=C(\C)N)nnc12`, the outcome is reported as “inactive”.
`COCCNC(=O)c1cnn2c(C(F)(F)F)cc(-c3ccc4c(c3)OCO4)nc12` was tested, and the outcome was “inactive”.
For `COc1cc2c(C#N)c(N3CCN(c4ccccc4OC)CC3)nc(N)c2c(N)n1`, the outcome was “inactive”.
With `CCc1c(C)c(C#N)c2nc3ccccc3n2c1Nc1c(C)n(C)n(-c2ccccc2)c1=O` the outcome was “inactive”.
`O=C1CC(c2cccnc2)c2cc3c(cc2N1)OCO3` (centres undefined) was tested, and the outcome was “inactive”.
With `Cc1c(C(=O)OCC(C)(C)CN(C)C)oc2ccccc12` the outcome was “inactive”.
For `Cc1cc(=O)cc(C)[nH]1`, the outcome was “inactive”.
`COc1cc(C(=O)Nc2ccc3c(c2)OCO3)ccc1-n1cnnn1` was tested, and the outcome was “inactive”.
In the case of `Cc1ccc(C2C3=C(CC(C)(C)CC3=O)N(CCN3CCOCC3)C3=C2C(=O)CC(C)(C)C3)cc1`, the outcome is reported as “inactive”.
With `O=C(c1ccc(F)cc1)N1CCC(N2CCCCCC2)CC1` the outcome was “inactive”.
`Cc1cc(=O)[nH]c(/N=C(\N)Nc2cccc3ccccc23)n1` was tested, and the outcome was “inactive”.
`CC(NC(=O)c1cccc(N2CCCC2=O)c1)c1ccc2c(c1)OCCO2` (centres undefined) was tested, and the outcome was “inactive”.
`O=C(c1noc2c1CCCC2)N1CCCCC1` was tested, and the outcome was “inactive”.
`CCCOC(=O)Cc1n[nH]c(=O)[nH]c1=O` was tested, and the outcome was “inactive”.
With `CCCn1c(C)nc2c(c1=O)c1nc3ccccc3nc1n2-c1ccc2c(c1)OCCO2` the outcome was “inactive”.
With `O=c1[nH]c(-c2ccncc2)nc2ccccc12` the outcome was “inactive”.
For `COc1ccc(N2C(C)=CS/C2=C(/C#N)c2nnc(N3CCOCC3)n2-c2ccccc2)cc1`, the outcome was “inactive”.
`CC(C)(O)P(C)(=O)c1ccccc1` (centres undefined) was tested, and the outcome was “inactive”.
For `CCOC(=O)C1=C(C)NC(C)=C(C(=O)OCC)C1c1cc2ccc(C)cc2[nH]c1=O`, the IC50 was 150 µM.
With `CCOc1ccc(C(=O)O)cc1OC` the outcome was “inactive”.
`Cc1c(NC(=O)C2CCN(S(=O)(=O)c3ccccc3)CC2)c(=O)n(-c2ccccc2)n1C` was tested, and the outcome was “inactive”.
In the case of `CN(C)CCSc1nnc(-c2ccccc2)o1`, the outcome is reported as “inactive”.
In the case of `N#Cc1c(C(F)(F)F)cc(-c2ccco2)nc1SCc1ccncc1`, the outcome is reported as “inactive”.
For `CCCN1C(=O)C(NC(C)=O)c2cc(OC)ccc21` (centres undefined), the outcome was “inactive”.
`CCOc1nc(-c2ccccc2)ccc1-c1noc(-c2ccc(OC)c(OC)c2)n1` was tested, and the outcome was “inactive”.
`Cc1nc2oc3c(NCc4ccccn4)ncnc3c2c2c1COC(C)(C)C2` was tested, and the outcome was “inactive”.
For `CCCc1nnc(NC(=O)CN2CCOCC2)s1`, the outcome was “inactive”.
With `CCCCCn1c(SCC#N)nc2cc(C(=O)NCC3CCCO3)ccc2c1=O` (centres undefined) the outcome was “inactive”.
In the case of `O=S(=O)(Nc1cccc2ncccc12)c1cccs1`, the outcome is reported as “inactive”.
With `COC(=O)CC1SC(=O)NC1=Nc1ccccc1` (centres undefined) the outcome was “inactive”.
For `Cc1cc(N2CCN(C(=O)c3ccco3)CC2)n2nc(-c3cccc(Cl)c3)cc2n1`, the outcome was “inactive”.
With `CC1CC(C)CN(CCCNC(=O)Cn2ncc3c(=O)oc4ccccc4c32)C1` (centres undefined) the outcome was “inactive”.
With `COc1ccccc1NC(=O)CSc1nc(O)cc(=O)n1-c1ccccc1OC` the outcome was “inactive”.
For `O=C(CCc1nc(-c2ccccc2F)no1)NCCN1CCc2ccccc2C1`, the outcome was “inactive”.
`CC(O)COc1ccc(/C(=N/O)c2ccccc2)cc1` (centres undefined) was tested, and the outcome was “inactive”.
`Cc1c(C(=O)NCc2ccc3c(c2)OCO3)sc2nc(-c3ccccc3)cn12` was tested, and the outcome was “inactive”.
With `COc1ccc(C2CC(c3cccc(C)c3)n3nc(N)nc3N2)cc1` (centres undefined) the outcome was “inactive”.
With `COc1ccc(C(c2nnnn2CC2CCCO2)N2CCN(c3ccccc3)CC2)cc1` (centres undefined) the outcome was “inactive”.
For `CCOC(=O)C(Cc1ccccc1)C(=O)Nc1nccs1` (centres undefined), the outcome was “inactive”.
With `CCN(CC)c1nc2ccccc2n2cnnc12` the outcome was “inactive”.
In the case of `CCOC(=O)CSc1cc(=O)n(C)c2cc(Cl)ccc12`, the outcome is reported as “inactive”.
In the case of `CN(C)C(=O)N1CCC(C(=O)NCc2cccs2)CC1`, the outcome is reported as “inactive”.
With `O=C(CSc1nnc2ccccn12)Nc1ccccc1C(=O)NC1CC1` the outcome was “inactive”.
With `CCc1nnc(NC(=O)CSc2nnc(COc3ccccc3)n2Cc2ccccc2)s1` the outcome was “inactive”.
`Cn1c(SCC(=O)N2CCOCC2)nnc1-c1ccc(NC(=O)c2ccccc2F)cc1` was tested, and the outcome was “inactive”.
`COc1ccc(C(O)Cn2c(=N)n(CCCN(C)C)c3ccccc32)cc1` (centres undefined) was tested, and the outcome was “inactive”.
With `Cc1ccc(-n2c(SCC(=O)NCc3ccco3)nnc2-c2cccnc2)c(C)c1` the outcome was “inactive”.
With `Clc1c(-c2nnc3n2CCC3)sc2ccccc12` the outcome was “inactive”.
For `CN1CC(=O)NC1=NC(=O)C12CC3CC(CC(C3)C1)C2`, the outcome was “inactive”.
With `O=C(NCc1cccnc1)c1ccc2c(=O)n(CCCN3CCCC3=O)c(=S)[nH]c2c1` the outcome was “inactive”.
In the case of `CCOc1ccc(N(CC(=O)NC2CCCC(C)C2C)S(=O)(=O)c2c(C)noc2C)cc1` (centres undefined), the outcome is reported as “inactive”.
With `COc1cccc(C(=O)Nc2ccc(NC(=O)C(C)C)nc2)c1` the outcome was “inactive”.
In the case of `CCOC(=O)c1cncc(NC(=O)c2ccccc2)c1`, the outcome is reported as “inactive”.
With `CCOc1cc(NC(=O)c2ccco2)c(OCC)cc1NC(=O)CCc1ccc(OC)cc1` the outcome was “inactive”.

Source: PubChem BioAssay AID550 (SRMLSC, 2006)
